In test [1] the target is T1, COX-2 (Homo sapiens, UniProt P35354).
T1 sequence (P35354 18-604): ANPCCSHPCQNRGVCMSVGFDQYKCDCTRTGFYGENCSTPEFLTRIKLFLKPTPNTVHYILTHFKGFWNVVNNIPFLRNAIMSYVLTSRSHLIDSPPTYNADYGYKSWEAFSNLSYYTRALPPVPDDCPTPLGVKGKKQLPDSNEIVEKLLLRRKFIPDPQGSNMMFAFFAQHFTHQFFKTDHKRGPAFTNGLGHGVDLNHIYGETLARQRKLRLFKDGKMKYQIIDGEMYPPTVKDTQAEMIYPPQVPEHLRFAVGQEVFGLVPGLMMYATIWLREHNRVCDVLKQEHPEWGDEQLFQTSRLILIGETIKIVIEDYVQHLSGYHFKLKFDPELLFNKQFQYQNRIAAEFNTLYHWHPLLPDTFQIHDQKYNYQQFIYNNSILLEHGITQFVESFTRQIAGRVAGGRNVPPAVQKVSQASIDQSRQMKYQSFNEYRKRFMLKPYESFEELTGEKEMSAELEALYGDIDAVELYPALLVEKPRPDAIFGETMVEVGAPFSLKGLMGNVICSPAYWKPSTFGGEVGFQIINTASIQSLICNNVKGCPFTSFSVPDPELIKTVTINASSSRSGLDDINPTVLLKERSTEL
In words: Whole cell assay for COX-2 using CHO transfected cell lines (CHO[hCOX-2]). Also on record: expressed in transfected cells; CHO[hCOX-2]. Conditions: CHO[hCOX-2] cells, PGE2 synthesis in response to arachidonic acid. In kind it is cell-based. How it is done:
Compounds are tested as inhibitors of cyclooxygenase activity in whole cell cyclooxygenase assays. These assays measure prostaglandin E2 synthesis in response to arachidonic acid, using a radioimmunoassay. Cells used for these assays are chinese hamster ovary (CHO) cell lines which have been stably transfected with an eukaryotic expression vector […] containing either the human Cox-1 or Cox-2 CDNA's. U937 cell microsomes are also used to measure Cox-1 activity.
Chinese hamster ovary (CHO) cell lines which have been stably transfected with an eukaryotic expression vector pCDNAIII containing either the human COX-1 or COX-2 cDNA's are used for the assay. These cell lines are referred to as CHO [hCOX-1] and CHO [hCOX-2], respectively. […] Drugs to be tested are dissolved in DMSO to 66.7-fold the highest test drug concentration. […] Cells (0.3×10^6 cells in 200 μl) are preincubated with 3 μl of the test drug or DMSO vehicle for 15 min at 37° C.
In the assay, inhibition is determined by measuring the amount of prostaglandin E2 (PGE2) synthesized in the presence of arachidonic acid, cyclooxygenase-1 or cyclooxygenase-2 and a putative inhibitor.

Test [2] has as its target T1, COX-2. In words: Human whole blood assay, COX-2 (LPS-induced PGE2 production). As to conditions: LPS-induced PGE2, 24 hours at 37° C, read-out: COX-2 (IC50) HWB. The class given is cell-based. Also on record: incubation of human whole blood with LPS, which induces COX-2; endogenous in cells; host or cells: fresh heparinized whole blood of human volunteers, LPS-stimulated. From the text: As well, platelets in whole blood contain a large amount of the COX-1 enzyme. Immediately following blood clotting, platelets are activated through a thrombin-mediated mechanism. This reaction results in the production of thromboxane B2 (TxB2) via activation of COX-1. Thus, the effect of test compounds on TxB2 levels following blood clotting can be examined and used as an index for COX-1 activity. Therefore, the degree of selectivity by the test compound can be determined by measuring the levels of PGE2 after LPS induction (COX-2) and TxB2 following blood clotting (COX-1) in the same assay. A. COX-2 (LPS-induced PGE2 production) Fresh blood is collected in heparinized tubes by venipuncture from both male and female volunteers. The subjects have no apparent inflammatory conditions and have not taken any NSAIDs for at least 7 days prior to blood collection. Plasma is immediately obtained from a 2 mL blood aliquot to use as blank (basal levels of PGE2). […] The supernatant is obtained and is assayed for PGE2 using a radioimmunoassay kit (Amersham, RPA#530) after conversion of PGE2 to its methyl oximate derivative according to the manufacturer's procedure.

A further test deals with Rat Paw Edema. In words: Rat paw edema assay (carrageenan). In kind it is in vivo, rat (male Sprague-Dawley). As to conditions: po, 1 hr before carrageenan, paw volume 3 hr later. As for the experimental part:
Male Sprague-Dawley rats (150-200 g) are fasted overnight and are given, po, either vehicle (1% methocel or 5% Tween 80) or a test compound. One hr later, a line is drawn using a permanent marker at the level above the ankle in one hind paw to define the area of the paw to be monitored. The paw volume (V0) is measured using a plethysmometer (Ugo-Basile, Italy) based on the principle of water displacement. The animals are then injected subplantarly with […] of 1% carrageenan solution in saline (FMC Corp, Maine) into the paw using an insulin syringe with a 25-gauge needle (i.e. […] carrageenan per paw). Three hr later, the paw volume (V3) is measured and the increases in paw volume (V3 -V0) are calculated. The animals are sacrificed by CO2 asphyxiation and the absence or presence of stomach lesions scored. Data is compared with the vehicle-control values and percent inhibition calculated. All treatment groups are coded to eliminate observer bias.

Take `C[C@H](O)[C@@H](C)OC1=C(c2ccc(S(C)(=O)=O)cc2)C(C)(C)OC1=O` (relative stereo) [Example 4]: the figures for the IC50 on COX-2 [1] and at COX-2 [2] were 600 nM and 900 nM, respectively.

In the test with Rat Paw Edema, `CC1(C)OC(=O)C(OC(C(F)(F)F)C(F)(F)F)=C1c1ccc(S(C)(=O)=O)cc1` [Example 2, 5,5-Dimethyl-3-(1,1,1,3,3,3-hexafluoropropoxy)-4-(4-methylsulfonylphenyl)-5H-furan-2-one] came in with an ED50 of 1 mg/kg.

In turn, `CC1(C)OC(=O)C(OC2CCC(F)(F)CC2)=C1c1ccc(S(C)(=O)=O)cc1` [Example 17] registered an ED50 in the test with Rat Paw Edema of 0.9 mg/kg.
